Reference: PubChem BioAssay AID2060888 (Molecular Pharmacology Branch, DTP, NCI, 2025)
Blank lines part the entries; values can stand above or below the molecule they belong to.

Tested on: 695427-040-R-J1-PDC complex spheroid viability
Assay: Anticancer human tumor 695427-040-R-J1-PDC patient-derived colon adenocarcinoma cell line growth inhibition [RAS]
Details: for IC50: curve of first compound; for viability, T/C: stronger effect = lower value
Summary of the method: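 Agents were tested in combination matrices in half-log decrements from a top concentration at or near clinical Cmax (10 microM if undetermined). Targets were multi-cell spheroids of tumour lines plus HUVEC and MSC stromal cells.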

[1] = second compound 0.000949 µM, first compound 0.0316 µM
[2] = second compound 0.000949 µM, first compound 0.1 µM
[3] = second compound 0.003 µM, first compound 0.0316 µM
[4] = second compound 0.003 µM, first compound 0.1 µM
[5] = second compound 0.00949 µM, first compound 0.0316 µM
[6] = second compound 0.00949 µM, first compound 0.1 µM
[7] = second compound 0.03 µM, first compound 0.0316 µM
[8] = second compound 0.03 µM, first compound 0.1 µM
[9] = second compound 0.0949 µM, first compound 0.0316 µM
[10] = second compound 0.0949 µM, first compound 0.1 µM
[11] = second compound 0.3 µM, first compound 0.0316 µM
[12] = second compound 0.3 µM, first compound 0.1 µM
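Further: viability read after seven days of drug exposure.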
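Wherever viability, T/C is given: 100% = DMSO vehicle control viability.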

IC50 (second compound 0.0316 µM): 40.4 nM
IC50 (second compound 0.1 µM): 31.5 nM
IC50 (second compound 0.316 µM): 31.4 nM
IC50 (second compound 1 µM): 17.7 nM
IC50 (second compound 3.16 µM): 3.68 nM
IC50 (second compound 10 µM): < 3.16 nM
SMILES: O=C(c1ccc(F)c(F)c1Nc1ccc(I)cc1F)N1CC(O)([C@@H]2CCCCN2)C1 + C#Cc1c(F)ccc2cc(O)cc(-c3ncc4c(N5CC6CCC(C5)N6)nc(OCC56CCCN5CC(F)C6)nc4c3F)c12
viability, T/C (second compound 0.0316 µM, first compound 0.00316 µM): 93.3%
viability, T/C (second compound 0.0316 µM, first compound 0.01 µM): 77%
viability, T/C (second compound 0.0316 µM, first compound 0.0316 µM): 55.7%
viability, T/C (second compound 0.0316 µM, first compound 0.1 µM): 30.5%
viability, T/C (second compound 0.0316 µM, first compound 0.316 µM): 15.2%
viability, T/C (second compound 0.0316 µM, first compound 1 µM): 2.92%
viability, T/C (second compound 0.1 µM, first compound 0.00316 µM): 92.1%
viability, T/C (second compound 0.1 µM, first compound 0.01 µM): 65.7%
viability, T/C (second compound 0.1 µM, first compound 0.0316 µM): 53.8%
viability, T/C (second compound 0.1 µM, first compound 0.1 µM): 30.9%
viability, T/C (second compound 0.1 µM, first compound 0.316 µM): 15.7%
viability, T/C (second compound 0.1 µM, first compound 1 µM): 2.78%
viability, T/C (second compound 0.316 µM, first compound 0.00316 µM): 82.9%
viability, T/C (second compound 0.316 µM, first compound 0.01 µM): 65.5%
viability, T/C (second compound 0.316 µM, first compound 0.0316 µM): 52.6%
viability, T/C (second compound 0.316 µM, first compound 0.1 µM): 29.9%
viability, T/C (second compound 0.316 µM, first compound 0.316 µM): 17%
viability, T/C (second compound 0.316 µM, first compound 1 µM): 4.73%
viability, T/C (second compound 1 µM, first compound 0.00316 µM): 59.1%
viability, T/C (second compound 1 µM, first compound 0.01 µM): 53.4%
viability, T/C (second compound 1 µM, first compound 0.0316 µM): 47%
viability, T/C (second compound 1 µM, first compound 0.1 µM): 23.4%
viability, T/C (second compound 1 µM, first compound 0.316 µM): 12.8%
viability, T/C (second compound 1 µM, first compound 1 µM): 3.39%
viability, T/C (second compound 3.16 µM, first compound 0.00316 µM): 52.2%
viability, T/C (second compound 3.16 µM, first compound 0.01 µM): 38.5%
viability, T/C (second compound 3.16 µM, first compound 0.0316 µM): 23.7%
viability, T/C (second compound 3.16 µM, first compound 0.1 µM): 19.6%
viability, T/C (second compound 3.16 µM, first compound 0.316 µM): 8.05%
viability, T/C (second compound 3.16 µM, first compound 1 µM): 2.3%
viability, T/C (second compound 10 µM, first compound 0.00316 µM): 30.1%
viability, T/C (second compound 10 µM, first compound 0.01 µM): 32.8%
viability, T/C (second compound 10 µM, first compound 0.0316 µM): 22.5%
viability, T/C (second compound 10 µM, first compound 0.1 µM): 11.1%
viability, T/C (second compound 10 µM, first compound 0.316 µM): 2.72%
viability, T/C (second compound 10 µM, first compound 1 µM): 1.31%

IC50 (second compound 0.000949 µM): > 10000 nM
IC50 (second compound 0.003 µM): > 10000 nM
IC50 (second compound 0.00949 µM): > 10000 nM
IC50 (second compound 0.03 µM): > 10000 nM
IC50 (second compound 0.0949 µM): > 10000 nM
IC50 (second compound 0.3 µM): 9980 nM
SMILES: CC1(O)CCCC1n1c(=O)c(C(F)F)cc2cnc(NC3CCN(S(C)(=O)=O)CC3)nc21 (stereo not given) + CCn1c(-c2cccnc2C(C)OC)c2c3cc(ccc31)N1CCOC(CC(NC(=O)C(C(C)C)N(C)C(=O)C3(F)CCN(C(=O)C#CC(C)(C)N(C)C)CC3)C(=O)N3CCCC(N3)C(=O)OCC(C)(C)C2)C1
viability, T/C [1]: 102%
viability, T/C [2]: 104%
viability, T/C (second compound 0.000949 µM, first compound 0.316 µM): 90.7%
viability, T/C (second compound 0.000949 µM, first compound 1 µM): 104%
viability, T/C (second compound 0.000949 µM, first compound 3.16 µM): 93.1%
viability, T/C (second compound 0.000949 µM, first compound 10 µM): 79.4%
viability, T/C [3]: 102%
viability, T/C [4]: 98.7%
viability, T/C (second compound 0.003 µM, first compound 0.316 µM): 95.9%
viability, T/C (second compound 0.003 µM, first compound 1 µM): 103%
viability, T/C (second compound 0.003 µM, first compound 3.16 µM): 125%
viability, T/C (second compound 0.003 µM, first compound 10 µM): 86.3%
viability, T/C [5]: 108%
viability, T/C [6]: 80.8%
viability, T/C (second compound 0.00949 µM, first compound 0.316 µM): 97.5%
viability, T/C (second compound 0.00949 µM, first compound 1 µM): 87.6%
viability, T/C (second compound 0.00949 µM, first compound 3.16 µM): 124%
viability, T/C (second compound 0.00949 µM, first compound 10 µM): 88.6%
viability, T/C [7]: 90.2%
viability, T/C [8]: 80%
viability, T/C (second compound 0.03 µM, first compound 0.316 µM): 81.3%
viability, T/C (second compound 0.03 µM, first compound 1 µM): 97.9%
viability, T/C (second compound 0.03 µM, first compound 3.16 µM): 115%
viability, T/C (second compound 0.03 µM, first compound 10 µM): 73.6%
viability, T/C [9]: 77.3%
viability, T/C [10]: 95.7%
viability, T/C (second compound 0.0949 µM, first compound 0.316 µM): 89.4%
viability, T/C (second compound 0.0949 µM, first compound 1 µM): 113%
viability, T/C (second compound 0.0949 µM, first compound 3.16 µM): 124%
viability, T/C (second compound 0.0949 µM, first compound 10 µM): 71.3%
viability, T/C [11]: 77%
viability, T/C [12]: 94%
viability, T/C (second compound 0.3 µM, first compound 0.316 µM): 85%
viability, T/C (second compound 0.3 µM, first compound 1 µM): 95.7%
viability, T/C (second compound 0.3 µM, first compound 3.16 µM): 95.9%
viability, T/C (second compound 0.3 µM, first compound 10 µM): 49.9%

IC50 (second compound 0.000949 µM): > 100 nM
IC50 (second compound 0.003 µM): > 100 nM
IC50 (second compound 0.00949 µM): > 100 nM
IC50 (second compound 0.03 µM): > 100 nM
IC50 (second compound 0.0949 µM): 95.3 nM
IC50 (second compound 0.3 µM): 89.7 nM
SMILES: CC(C)n1nc(-c2ccc3oc(N)nc3c2)c2c(N)ncnc21 + CCn1c(-c2cccnc2C(C)OC)c2c3cc(ccc31)N1CCOC(CC(NC(=O)C(C(C)C)N(C)C(=O)C3(F)CCN(C(=O)C#CC(C)(C)N(C)C)CC3)C(=O)N3CCCC(N3)C(=O)OCC(C)(C)C2)C1
viability, T/C (second compound 0.000949 µM, first compound 0.000316 µM): 107%
viability, T/C (second compound 0.000949 µM, first compound 0.001 µM): 120%
viability, T/C (second compound 0.000949 µM, first compound 0.00316 µM): 78.7%
viability, T/C (second compound 0.000949 µM, first compound 0.01 µM): 90.6%
viability, T/C [1]: 74.3%
viability, T/C [2]: 56.2%
viability, T/C (second compound 0.003 µM, first compound 0.000316 µM): 107%
viability, T/C (second compound 0.003 µM, first compound 0.001 µM): 84.3%
viability, T/C (second compound 0.003 µM, first compound 0.00316 µM): 98.6%
viability, T/C (second compound 0.003 µM, first compound 0.01 µM): 83.5%
viability, T/C [3]: 62.1%
viability, T/C [4]: 57.3%
viability, T/C (second compound 0.00949 µM, first compound 0.000316 µM): 110%
viability, T/C (second compound 0.00949 µM, first compound 0.001 µM): 89.7%
viability, T/C (second compound 0.00949 µM, first compound 0.00316 µM): 85.5%
viability, T/C (second compound 0.00949 µM, first compound 0.01 µM): 74.2%
viability, T/C [5]: 73.5%
viability, T/C [6]: 56.5%
viability, T/C (second compound 0.03 µM, first compound 0.000316 µM): 108%
viability, T/C (second compound 0.03 µM, first compound 0.001 µM): 80.2%
viability, T/C (second compound 0.03 µM, first compound 0.00316 µM): 66%
viability, T/C (second compound 0.03 µM, first compound 0.01 µM): 78.3%
viability, T/C [7]: 77.7%
viability, T/C [8]: 62.5%
viability, T/C (second compound 0.0949 µM, first compound 0.000316 µM): 86.1%
viability, T/C (second compound 0.0949 µM, first compound 0.001 µM): 79.2%
viability, T/C (second compound 0.0949 µM, first compound 0.00316 µM): 66.8%
viability, T/C (second compound 0.0949 µM, first compound 0.01 µM): 76.9%
viability, T/C [9]: 73.4%
viability, T/C [10]: 48.9%
viability, T/C (second compound 0.3 µM, first compound 0.000316 µM): 83.2%
viability, T/C (second compound 0.3 µM, first compound 0.001 µM): 104%
viability, T/C (second compound 0.3 µM, first compound 0.00316 µM): 81%
viability, T/C (second compound 0.3 µM, first compound 0.01 µM): 74.8%
viability, T/C [11]: 64.5%
viability, T/C [12]: 48%

SMILES: CC(Nc1ccc2c(c1)OCCn1cc(N3C(=O)OCC3C(F)F)nc1-2)C(N)=O (stereo not given)
viability, T/C (compound 0.0316 µM): 89.9% [middle of 4 runs]
viability, T/C (compound 0.1 µM): 72.5% [middle of 4 runs]
viability, T/C (compound 0.316 µM): 73.7% [middle of 4 runs]
viability, T/C (compound 10 µM): 41.9% [middle of 4 runs]
